Test system: 885724-159-R-J1-PDC complex spheroid viability
Test: Anticancer human tumor 885724-159-R-J1-PDC patient-derived pancreatic adenocarcinoma cell line growth inhibition [POLQ]
Details: for IC50: curve of first compound; for viability, T/C: stronger effect = lower value
Procedure, shortened: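 Complex spheroid viability model combining PDC tumour cells with endothelial (HUVEC) and MSC stromal cells. Novobiocin, ART-558 or RP6685 were tested singly and in combination with standard and investigational anticancer drugs. Each was titrated in half-log steps from near clinical Cmax, or from 10 microM where Cmax was unknown.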

[1] = second compound 0.0316 µM, first compound 0.0316 µM
[2] = second compound 0.0316 µM, first compound 0.1 µM
[3] = second compound 0.0316 µM, first compound 0.316 µM
[4] = second compound 0.0316 µM, first compound 1 µM
[5] = second compound 0.0316 µM, first compound 3.16 µM
[6] = second compound 0.0316 µM, first compound 10 µM
[7] = second compound 0.1 µM, first compound 0.0316 µM
[8] = second compound 0.1 µM, first compound 0.1 µM
[9] = second compound 0.1 µM, first compound 0.316 µM
[10] = second compound 0.1 µM, first compound 1 µM
[11] = second compound 0.1 µM, first compound 3.16 µM
[12] = second compound 0.1 µM, first compound 10 µM
[13] = second compound 0.316 µM, first compound 0.0316 µM
[14] = second compound 0.316 µM, first compound 0.1 µM
[15] = second compound 0.316 µM, first compound 0.316 µM
[16] = second compound 0.316 µM, first compound 1 µM
[17] = second compound 0.316 µM, first compound 3.16 µM
[18] = second compound 0.316 µM, first compound 10 µM
[19] = second compound 1 µM, first compound 0.0316 µM
[20] = second compound 1 µM, first compound 0.1 µM
[21] = second compound 1 µM, first compound 0.316 µM
[22] = second compound 1 µM, first compound 1 µM
[23] = second compound 1 µM, first compound 3.16 µM
[24] = second compound 1 µM, first compound 10 µM
[25] = second compound 3.16 µM, first compound 0.0316 µM
[26] = second compound 3.16 µM, first compound 0.1 µM
[27] = second compound 3.16 µM, first compound 0.316 µM
[28] = second compound 3.16 µM, first compound 1 µM
[29] = second compound 3.16 µM, first compound 3.16 µM
[30] = second compound 3.16 µM, first compound 10 µM
[31] = second compound 10 µM, first compound 0.0316 µM
[32] = second compound 10 µM, first compound 0.1 µM
[33] = second compound 10 µM, first compound 0.316 µM
[34] = second compound 10 µM, first compound 1 µM
[35] = second compound 10 µM, first compound 3.16 µM
[36] = second compound 10 µM, first compound 10 µM
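Note: spheroids exposed to compounds for 7 days.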

With CC1COCCN1c1cc(-c2ccnn2C)c2ccnc(-c3ccn[nH]3)c2n1 (stereo not drawn) + Cc1cccc(N(C)C(=O)C2C(O)CCN2c2nc(C)cc(C(F)(F)F)c2C#N)c1 the IC50 (second compound 0.0316 µM) was 350 nM, the IC50 (second compound 0.1 µM) was 631 nM and the IC50 (second compound 0.316 µM) was 364 nM. For the same compound, the IC50 (second compound 1 µM) was 467 nM, the IC50 (second compound 3.16 µM) was 576 nM and the IC50 (second compound 10 µM) was 441 nM. The viability, T/C [1] was 85.6%, the viability, T/C [2] was 61.2% and the viability, T/C [3] was 52.3%. For the same compound, the viability, T/C [4] was 42.6%, the viability, T/C [5] was 45.5% and the viability, T/C [6] was 39%. The viability, T/C [7] was 87%, the viability, T/C [8] was 66.2% and the viability, T/C [9] was 54.2%. For the same compound, the viability, T/C [10] was 47.5%, the viability, T/C [11] was 44.7% and the viability, T/C [12] was 36.1%. It also gave a viability, T/C [13] of 89.3%, a viability, T/C [14] of 61.5% and a viability, T/C [15] of 51.5%. It also gave a viability, T/C [16] of 47.2%, a viability, T/C [17] of 40.6% and a viability, T/C [18] of 41.4%. The viability, T/C [19] was 82.9%, the viability, T/C [20] was 65.1% and the viability, T/C [21] was 50.2%. The viability, T/C [22] was 47.4%, the viability, T/C [23] was 41.9% and the viability, T/C [24] was 38.3%. The viability, T/C [25] was 77.8%, the viability, T/C [26] was 63.2% and the viability, T/C [27] was 51.9%. The viability, T/C [28] was 47%, the viability, T/C [29] was 46.5% and the viability, T/C [30] was 37.8%. The viability, T/C [31] was 86%, the viability, T/C [32] was 58.5% and the viability, T/C [33] was 50.4%. It also gave a viability, T/C [34] of 53.3%, a viability, T/C [35] of 49.6% and a viability, T/C [36] of 40.2%.
For CC1COCCN1c1cc(C2(S(C)(=N)=O)CC2)nc(-c2ccnc3[nH]ccc23)n1 (stereo not drawn) + Cc1cccc(N(C)C(=O)C2C(O)CCN2c2nc(C)cc(C(F)(F)F)c2C#N)c1, the IC50 (second compound 0.0316 µM) was > 10000 nM, the IC50 (second compound 0.1 µM) was > 10000 nM and the IC50 (second compound 0.316 µM) was 9040 nM. For the same compound, the IC50 (second compound 1 µM) was 5330 nM, the IC50 (second compound 3.16 µM) was > 10000 nM and the IC50 (second compound 10 µM) was > 10000 nM. For the same compound, the viability, T/C [1] was 105%, the viability, T/C [2] was 97.3% and the viability, T/C [3] was 89%. For the same compound, the viability, T/C [4] was 72%, the viability, T/C [5] was 58% and the viability, T/C [6] was 51.7%. For the same compound, the viability, T/C [7] was 103%, the viability, T/C [8] was 94.1% and the viability, T/C [9] was 97.9%. The viability, T/C [10] was 65.4%, the viability, T/C [11] was 55.2% and the viability, T/C [12] was 53.8%. The viability, T/C [13] was 108%, the viability, T/C [14] was 102% and the viability, T/C [15] was 92.5%. For the same compound, the viability, T/C [16] was 72.9%, the viability, T/C [17] was 55.9% and the viability, T/C [18] was 49.7%. The viability, T/C [19] was 109%, the viability, T/C [20] was 93.6% and the viability, T/C [21] was 97%. It also gave a viability, T/C [22] of 71.8%, a viability, T/C [23] of 52.3% and a viability, T/C [24] of 47.2%. The viability, T/C [25] was 98.5%, the viability, T/C [26] was 95.6% and the viability, T/C [27] was 92.8%. It also gave a viability, T/C [28] of 73.8%, a viability, T/C [29] of 51.7% and a viability, T/C [30] of 51.3%. The viability, T/C [31] was 92.2%, the viability, T/C [32] was 97.2% and the viability, T/C [33] was 91.5%. It also gave a viability, T/C [34] of 68.2%, a viability, T/C [35] of 56.4% and a viability, T/C [36] of 50.4%.
For CCCS(=O)(=O)Nc1ccc(F)c(C(=O)c2c[nH]c3ncc(-c4ccc(Cl)cc4)cc23)c1F + Cc1cccc(N(C)C(=O)C2C(O)CCN2c2nc(C)cc(C(F)(F)F)c2C#N)c1, the IC50 (second compound 0.0316 µM) was > 10000 nM, the IC50 (second compound 0.1 µM) was > 10000 nM and the IC50 (second compound 0.316 µM) was > 10000 nM. The IC50 (second compound 1 µM) was > 10000 nM, the IC50 (second compound 3.16 µM) was > 10000 nM and the IC50 (second compound 10 µM) was > 10000 nM. It also gave a viability, T/C [1] of 100%, a viability, T/C [2] of 118% and a viability, T/C [3] of 116%. For the same compound, the viability, T/C [4] was 142%, the viability, T/C [5] was 140% and the viability, T/C [6] was 94.6%. The viability, T/C [7] was 99.8%, the viability, T/C [8] was 111% and the viability, T/C [9] was 122%. It also gave a viability, T/C [10] of 142%, a viability, T/C [11] of 158% and a viability, T/C [12] of 99.4%. The viability, T/C [13] was 103%, the viability, T/C [14] was 112% and the viability, T/C [15] was 135%. The viability, T/C [16] was 158%, the viability, T/C [17] was 158% and the viability, T/C [18] was 100%. The viability, T/C [19] was 117%, the viability, T/C [20] was 102% and the viability, T/C [21] was 123%. The viability, T/C [22] was 144%, the viability, T/C [23] was 160% and the viability, T/C [24] was 97.5%. It also gave a viability, T/C [25] of 108%, a viability, T/C [26] of 109% and a viability, T/C [27] of 121%. It also gave a viability, T/C [28] of 155%, a viability, T/C [29] of 151% and a viability, T/C [30] of 86.6%. The viability, T/C [31] was 101%, the viability, T/C [32] was 105% and the viability, T/C [33] was 143%. The viability, T/C [34] was 153%, the viability, T/C [35] was 137% and the viability, T/C [36] was 82.9%.
With Cn1ncnc1[C@H]1c2n[nH]c(=O)c3cc(F)cc(c23)N[C@@H]1c1ccc(F)cc1 + Cc1cccc(N(C)C(=O)C2C(O)CCN2c2nc(C)cc(C(F)(F)F)c2C#N)c1 the IC50 (second compound 0.0316 µM) was > 100 nM, the IC50 (second compound 0.1 µM) was > 100 nM and the IC50 (second compound 0.316 µM) was > 100 nM. The IC50 (second compound 1 µM) was > 100 nM, the IC50 (second compound 3.16 µM) was > 100 nM and the IC50 (second compound 10 µM) was > 100 nM. The viability, T/C (second compound 0.0316 µM, first compound 0.000316 µM) was 97.2%, the viability, T/C (second compound 0.0316 µM, first compound 0.001 µM) was 86.9% and the viability, T/C (second compound 0.0316 µM, first compound 0.00316 µM) was 96.1%. It also gave a viability, T/C (second compound 0.0316 µM, first compound 0.01 µM) of 86.3%, a viability, T/C [1] of 93.6% and a viability, T/C [2] of 87.5%. The viability, T/C (second compound 0.1 µM, first compound 0.000316 µM) was 96.9%, the viability, T/C (second compound 0.1 µM, first compound 0.001 µM) was 95% and the viability, T/C (second compound 0.1 µM, first compound 0.00316 µM) was 92.9%. The viability, T/C (second compound 0.1 µM, first compound 0.01 µM) was 91.7%, the viability, T/C [7] was 99.9% and the viability, T/C [8] was 87.8%. It also gave a viability, T/C (second compound 0.316 µM, first compound 0.000316 µM) of 112%, a viability, T/C (second compound 0.316 µM, first compound 0.001 µM) of 97.1% and a viability, T/C (second compound 0.316 µM, first compound 0.00316 µM) of 93.2%. The viability, T/C (second compound 0.316 µM, first compound 0.01 µM) was 93.5%, the viability, T/C [13] was 100% and the viability, T/C [14] was 86.4%. The viability, T/C (second compound 1 µM, first compound 0.000316 µM) was 98.5%, the viability, T/C (second compound 1 µM, first compound 0.001 µM) was 101% and the viability, T/C (second compound 1 µM, first compound 0.00316 µM) was 89.2%. For the same compound, the viability, T/C (second compound 1 µM, first compound 0.01 µM) was 84.5%, the viability, T/C [19] was 92.9% and the viability, T/C [20] was 88.5%. The viability, T/C (second compound 3.16 µM, first compound 0.000316 µM) was 98.3%, the viability, T/C (second compound 3.16 µM, first compound 0.001 µM) was 101% and the viability, T/C (second compound 3.16 µM, first compound 0.00316 µM) was 86.4%. The viability, T/C (second compound 3.16 µM, first compound 0.01 µM) was 89.6%, the viability, T/C [25] was 88.6% and the viability, T/C [26] was 84.7%. The viability, T/C (second compound 10 µM, first compound 0.000316 µM) was 93.7%, the viability, T/C (second compound 10 µM, first compound 0.001 µM) was 95.9% and the viability, T/C (second compound 10 µM, first compound 0.00316 µM) was 98.1%. For the same compound, the viability, T/C (second compound 10 µM, first compound 0.01 µM) was 94.4%, the viability, T/C [31] was 94.1% and the viability, T/C [32] was 80%.

Source: PubChem BioAssay AID1963832 (Molecular Pharmacology Branch, DTP, NCI, 2024)
